Test results published in patent publication US8981084B2, “Oxadiazole HDAC inhibitors” (Tempero Pharmaceuticals, Inc., priority 2011, dated 2015).

target: T1, Recombinant HDAC9 isoform 4 (Homo sapiens, UniProt Q9UKV0); experiment: Histone Deacetylase 9 (HDAC9) inhibition assay, fluorogenic substrate; format: biochemical; details: mean of a minimum of 2 experiments; 11 point 3x dilution series from 100 uM; Class IIa HDAC-specific fluorogenic substrate 4.5 uM; read-out: mean pIC50, inhibition of HDAC9 (converted)
T1 construct: purchased BPS Bioscience
Source text: Histone Deacetylase 9 (HDAC9) Inhibition Assay:
Novel histone deacetylase 9 (HDAC9) inhibitors were characterized in an in vitro biochemical functional assay. The assay measures the increased fluorescent signal due to deacetylation, by HDAC9, of a fluorogenic substrate. The commercial available substrate is Class IIa HDAC-specific and contains an acetylated lysine residue and would releases the fluorescent signal upon trypsin cleavage after deacetylation.
Specifically, test compounds diluted to various concentrations in 100% DMSO are first dispensed into 384-well assay plates. Recombinant HDAC9 isoform 4 (purchased from BPS Bioscience) in complete assay buffer (50 mM Tris-HCl, pH 8.0, 137 mM NaCl, 2.7 mM KCl, 1 mM MgCl2, 0.05% BSA & 0.005% Tween 20) were then added to each well (5 uL/well) using Multidrop Combi (Thermo Scientific), followed by 5 uL/well substrate (purchased from BPS Bioscience, 4.5 uM final). After 45 minutes incubation at room temperature, 10 uL 2× developer solution (assay buffer with 40 uM Trypsin and 20 uM Trichostatin A) was added. The plates were then incubated 1 hour at room temperature before reading in fluorescent intensity mode at 450 nm in an Envision (Perkin Elmer) plate reader. Percent Inhibition of HDAC9 activity by compounds in each test wells was calculated by normalizing to fluorescent signal in control wells containing DMSO only. The pIC50s value of test compounds were calculated from non-linear curve fitting, using ActivityBase5 data analysis tool (IDBS), from 11 point 3× dilution series starting from 100 uM final compound concentration.
For dose response experiments, normalized data were fit by ABASE/XC50 using the equation y=a+(b−a)/(1+(10^×/10^c)^d), where a is the minimum % activity, b is the maximum % activity, c is the pIC50, d is the Hill slope.
The pIC50s are averaged to determine a mean value, for a minimum of 2 experiments. […] For instance, the compounds of Examples 1, 38, 61 and 79 inhibited HDAC9 in the above method with a mean pIC50 of >6.

T1 sequence (Q9UKV0 1-1066 isoform Q9UKV0-5): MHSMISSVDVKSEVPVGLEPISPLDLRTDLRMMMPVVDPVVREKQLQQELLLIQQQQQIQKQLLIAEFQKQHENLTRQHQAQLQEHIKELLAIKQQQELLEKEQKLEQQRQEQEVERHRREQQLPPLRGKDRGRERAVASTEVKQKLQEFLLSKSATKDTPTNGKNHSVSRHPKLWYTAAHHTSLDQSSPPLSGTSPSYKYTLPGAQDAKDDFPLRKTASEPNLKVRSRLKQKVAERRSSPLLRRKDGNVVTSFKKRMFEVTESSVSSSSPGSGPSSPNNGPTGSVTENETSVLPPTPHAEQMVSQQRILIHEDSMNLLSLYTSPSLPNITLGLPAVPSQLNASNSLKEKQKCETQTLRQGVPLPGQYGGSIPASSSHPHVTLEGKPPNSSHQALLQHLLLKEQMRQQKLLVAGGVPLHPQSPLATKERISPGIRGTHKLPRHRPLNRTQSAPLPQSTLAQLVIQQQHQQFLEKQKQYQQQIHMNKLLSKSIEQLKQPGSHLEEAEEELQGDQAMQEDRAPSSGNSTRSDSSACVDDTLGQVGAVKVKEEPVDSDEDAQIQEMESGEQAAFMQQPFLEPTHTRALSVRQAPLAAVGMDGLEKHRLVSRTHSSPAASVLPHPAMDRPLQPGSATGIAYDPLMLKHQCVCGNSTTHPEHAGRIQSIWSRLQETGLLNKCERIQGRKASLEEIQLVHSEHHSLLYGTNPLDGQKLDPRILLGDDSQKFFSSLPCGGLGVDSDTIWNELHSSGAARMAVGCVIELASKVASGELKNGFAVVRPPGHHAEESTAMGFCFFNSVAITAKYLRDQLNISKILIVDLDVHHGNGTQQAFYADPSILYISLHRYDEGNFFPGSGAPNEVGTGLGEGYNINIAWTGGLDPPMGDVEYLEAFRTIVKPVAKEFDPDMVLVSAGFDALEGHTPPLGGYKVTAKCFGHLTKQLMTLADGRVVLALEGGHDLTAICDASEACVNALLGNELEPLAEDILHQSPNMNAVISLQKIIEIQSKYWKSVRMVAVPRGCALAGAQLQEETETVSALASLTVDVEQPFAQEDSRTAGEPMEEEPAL

IC50, < 1000 nM:
O=C(c1cccc(-c2noc(C(F)(F)F)n2)c1)N1CCCN(c2ccc(C(F)(F)F)cn2)CC1 [Example 1, (3-(5-(Trifluoromethyl)-1,2,4-oxadiazol-3-yl)phenyl)(4-(5-(trifluoromethyl)pyridin-2-yl)-1,4-diazepan-1-yl)methanone]
N#Cc1ccc(N2CCN(C(=O)c3cccc(-c4noc(C(F)(F)F)n4)c3)CC2)cc1 [Example 38, 4-(4-(3-(5-(Trifluoromethyl)-1,2,4-oxadiazol-3-yl)benzoyl)piperazin-1-yl)benzonitrile]
N#Cc1ccc(N2CCN(C(=O)c3cccc(-c4ccc(C(=O)C(F)(F)F)s4)c3)CC2)nc1 [Example 61, 6-(4-(3-(5-(2,2,2-Trifluoroacetyl)thiophen-2-yl)benzoyl)piperazin-1-yl)nicotinonitrile]
O=C(c1cccc(-c2noc(C(F)(F)F)n2)c1)N1CC(Cc2nc(-c3ccc(F)cc3)cs2)C1 [Example 79, (3-((4-(4-Fluorophenyl)thiazol-2-yl)methyl)azetidin-1-yl)(3-(5-(trifluoromethyl)-1,2,4-oxadiazol-3-yl)phenyl)methanone]
